Experimental data from US10329258B2, “CGAS in systemic lupus erythematosus (SLE)” (UNIVERSITY OF WASHINGTON, priority 2015, dated 2019).
“Also recorded” adds a separate entry of the source. Where two headings read alike, the source gives them in different places.

Assays:
cGAS = target: T1, cGAS (Homo sapiens, UniProt Q8N884); assay: cGAS activity assay: cGAMP production quantified by TLC (IC50 Enzyme Assay); assay type: biochemical; conditions: for inhibitory activity on cGAMP production, in words: TLC, FIG. 2C
T1 construct: made in house; host or cells: E. coli Rosetta BL21 pLysS
Protocol: HCQ belongs to a family of antimalarial drugs that share the structure of aminoquinolines. To rapidly screen these antimalarial drugs for their ability to interfere with cGAS activation by ds-DNA, we performed dose titration experiments with drug and quantified cGAMP production using thin layer chromatography (TLC) (FIG. 2A). Reactions were performed in triplicate and normalized to no-inhibitor controls and fit by non-linear regression using Prism […]™ to determine the IC50 of each compound. Each compound yielded dose-response curves similar to HCQ but with different inhibitory activities (FIG. 2B). […] Strikingly, the computational predicted binding affinities of these anti-malaria drugs inversely correlated with the IC50 of anti-malarial drugs, validating the prediction of our computational analysis (FIG. 2D).
Initial characterization of enzyme activity was monitored in the presence of 250 μM ATP, 250 μM GTP, 0-500 μg/mL herring testes DNA, 1.4 μM cGAS, 3.3 nM ^32P-γ-ATP in a buffer composed of 40 mM Tris, 250 mM NaCl, 10 mM MgCl2, pH 7.5. Reactions were incubated for 1 hr at room temperature and subsequently spotted on PEI-cellulose TLC plates and developed using a solvent composition 1:1.5 [v/v] saturated NH4SO4 and 1.5 M KH2PO4 [pH 3.6]. For inhibition assays, compounds were characterized in the presence of the above reaction contents at fixed 100 μg/mL htDNA. TLC plates were exposed to a phosphor-storage screen and imaged using a TYPHOON™ imaging system. (See FIGS. 7-16).
cGAS activity was monitored in the presence of 250 μM ATP, 250 μM GTP, 0-500 μg/ml herring testes DNA. 1.4 μM cGAS. and 3.3 nM [^32P]-ATP in Tris buffer (pH 7.5). After incubation for 1 h at room temperature, samples were spotted on PEI-cellulose Thin Layer Chromatograph (TLC) plates, and developed using a solvent composed of 1:1.5 [v/v] saturated NH4SO4 and 1.5 M KH2PO4 [pH 3.6]. For inhibition assays, compounds were characterized in the presence of the above reaction contents at fixed 100 μg/ml HT DNA. TLC plates were exposed to a phosphor-storage screen and imaged using a TYPHOOON™ imaging system. (FIG. 7).
Thin Layer Chromatograph (TLC) assay was used for the quantification of cGAS inhibition by compounds X5/X6/X7. Reactions were normalized to no-inhibitor controls and fit by non-linear regression using Prizm […]™ to determine the IC50 of each compound. (FIG. 7).

[1] = test system: IFNb production by THP1 cells; assay: IFNb expression by QPCR in THP1 cells transfected with herring testis DNA; assay type: cell-based; conditions: for IC50: Homo sapiens, read-out: IC50 of inhibition of IFNb production by THP1 cells; for inhibition of IFNb production, effectiveness in words: THP1 cells transfected with DNA, compared with Quinacrine, AMCA, HCQ, Chloroquine
Excerpt: Systemic Lupus Erythematosus (SLE) is strongly associated with increased expression of type I interferon (IFN-I) (Elkon, 2012). Both genetic as well as experimental studies indicate that IFN-I plays a central role in this disease (Lovgren, 2006) (Niewold, 2007). To determine the physiological relevance of our computational analysis and in vitro observance, we examined whether antimalarial drugs could inhibit IFNb production within the cell. […] Using this approach, we transfected THP1 cells with DNA in the presence or absence of antimalarial compounds and quantified IFNb expression by QPCR.
THP1 cells (0.2×10^6) were transfected with 0.5 ug herring testis DNA using Lipofectamine 2000 (Invitrogen) according to the manufacture's instruction. Before transfection, THP1 cells were incubated with different concentration of Hydroxychloroquine or other antimalarial drugs (100, 50, 25, 12.5 μM) for 5 minutes. Cells were stimulated for 16 hours and then harvested for RNA extraction.
Total RNA was isolated from THP1 cells using the RNeasy mini kit (Qiagen, Valencia, Calif.). cDNA was synthesized using 100 ng RNA with the high-capacity cDNA RT-KIT™ using random primers (Applied Biosystems, Foster City, Calif.). Reactions in duplicate were run on an ABI STEPONE PLUS™ using the primers from Qiagen (primer catalog number): a two-stage cycle of 95° C. for 15 s and 60° C. for 1 min was repeated for 40 cycles followed by a dissociation stage. Threshold cycle values were set as a constant threshold at 0.2, and fold changes in gene expression were then calculated using the 2^−ΔΔ^CT method.

3 cell lines = assay: Toxicity, average of 3 cell lines @ 50% cell death; assay type: cell-based
THP1 cells = assay: PolyIC Lipofectamine transfection of THP1 cells, IL-1b by ELISA; assay type: cell-based; conditions: PolyIC transfected THP1 cells, different concentration of HCQ
Excerpt: PolyIC was transfected by Lipofectamine to THP1 cells with different concentration of HCQ.

STING = STING (Homo sapiens, UniProt Q86WV6); assay: Binding of 32P-c-di-AMP by STING in the presence of HCQ; conditions: 32P-c-di-AMP (2 nM), STING (170 μM), different HCQ concentrations
dsDNA/cGAS complex = target: T2, dsDNA/cGAS complex (Homo sapiens, UniProt Q8N884); assay: Electrophoretic mobility shift assay (EMSA) of dsDNA (ISD) binding to cGAS; conditions: 0.2 μM ISD, 1.5 μM cGAS, HCQ 0.075~5 mM
T2 construct: made in house; host or cells: E. coli Rosetta BL21 pLysS
Excerpt: To determine whether these anti-malarial drugs could inhibit DNA binding to cGAS in vitro, we performed DNA binding studies by the electrophoretic mobility shift assay (EMSA). As previously shown, addition of increasing concentrations of cGAS to a constant concentration of ds DNA (ISD), results in the protein retarding migration of ISD on the gel (‘gel shift’) and less free DNA (FIG. 1, left panel). To test whether HCQ as a model antimalarial could attenuate the gel shift, we used constant concentrations of both ISD and cGAS (FIG. 1, right panel) in the presence of increasing concentrations of HCQ. As shown, increasing the concentration of HCQ reduced the gel shift caused by the formation of dsDNA/cGAS complexes and led to increasing free DNA at the bottom of the gel. […] Inhibition of formation of dsDNA/cGAS higher order complexes by antimalarial drugs are especially interesting and important since cGAS is activated by dsDNA induced oligomerization and dsDNA/cGAS complex formation is required for cGAS activation.
Electrophoretic mobility shift assay (EMSAs) were performed to measure the DNA-binding ability with or without HCQ in vitro. […] The mixtures were resolved on 1% agarose gel using 1×TBE electrophoresis buffer of at constant voltage of 100 V. The gel was analyzed by using a fluorescence-based EMSA kit (Molecular Probes) according to the manufacturer's protocol. […]

[2] = cGAS, fixed 100 μg/mL herring testes DNA, TLC of cGAMP, read-out: IC50 Enzyme Assay
[3] = THP-1, THP1 cells transfected with herring testis DNA, 16 hours, QPCR

T2 sequence (Q8N884 whole entry, species assumed, one chain of several): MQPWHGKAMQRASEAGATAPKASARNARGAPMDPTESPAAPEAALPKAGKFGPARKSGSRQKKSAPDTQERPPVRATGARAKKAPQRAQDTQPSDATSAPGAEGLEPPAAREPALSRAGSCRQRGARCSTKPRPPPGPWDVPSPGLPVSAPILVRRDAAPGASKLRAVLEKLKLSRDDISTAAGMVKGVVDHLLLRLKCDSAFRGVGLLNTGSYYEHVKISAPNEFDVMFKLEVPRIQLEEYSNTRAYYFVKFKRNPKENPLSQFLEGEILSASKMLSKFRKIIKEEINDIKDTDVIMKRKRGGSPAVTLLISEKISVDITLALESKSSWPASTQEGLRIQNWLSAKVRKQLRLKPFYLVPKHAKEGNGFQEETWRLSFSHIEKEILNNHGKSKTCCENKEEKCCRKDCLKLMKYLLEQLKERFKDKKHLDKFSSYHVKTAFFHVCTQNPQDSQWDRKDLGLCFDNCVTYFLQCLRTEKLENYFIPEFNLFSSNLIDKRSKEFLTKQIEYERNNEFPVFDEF
T1 sequence (Q8N884 whole entry, species assumed): as the sequence (Q8N884 whole entry, species assumed, one chain of several) above
Sequence of STING (Q86WV6 whole entry H232R, species assumed): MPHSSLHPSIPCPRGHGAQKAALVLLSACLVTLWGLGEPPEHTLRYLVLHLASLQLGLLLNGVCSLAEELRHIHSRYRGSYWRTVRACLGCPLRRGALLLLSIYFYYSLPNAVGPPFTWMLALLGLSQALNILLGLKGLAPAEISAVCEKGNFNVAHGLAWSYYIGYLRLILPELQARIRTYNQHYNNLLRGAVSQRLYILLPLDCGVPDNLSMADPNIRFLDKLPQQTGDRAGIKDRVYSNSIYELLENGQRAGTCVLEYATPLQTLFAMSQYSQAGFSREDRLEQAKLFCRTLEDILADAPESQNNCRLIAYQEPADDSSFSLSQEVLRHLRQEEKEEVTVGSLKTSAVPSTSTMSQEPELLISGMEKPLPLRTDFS

SMILES | IC50 (cGAS; [2]) [µM] | inhibitory activity on cGAMP production, in words (cGAS) | also measured
CCOc1ccc2nc3cc(N)ccc3c(N)c2c1 [compound 7] | 10 |  | 
COc1ccc2nc3cc(N)ccc3c(N(C)CCCN(C)Cc3ccco3)c2c1 [compound 15, 9-(N-furfuryl-N-methyl-N′-methyl-1′,3′-propanediamine)-3-amino-7-methoxyacridine] | 35 |  | 
COc1ccc2nc3cc(Cl)ccc3c(N)c2c1 [compound 6, 9-amino-6-chloro-2-methoxyacridine] |  | relatively potent inhibitors | IC50 (cGAS): 32 µM; IC50 ([1]; THP-1, 16 h): 3 to 25 µM
CCN(CC)CCCC(C)Nc1ccnc2cc(Cl)ccc12 (stereo not drawn) [compound 2, Chloroquine] | 850 | intermediate inhibitory activities | IC50 ([1]; THP-1, 16 h): 3 to 25 µM
O=C(O)[C@H](Cc1c[nH]c2ccccc12)Nc1c2ccccc2nc2ccccc12 [compound 9] | > 650 |  | 
CCOC(=O)c1ccc(Nc2c3ccccc3nc3ccccc23)cc1 [compound 10] | > 650 |  | 
COc1cc(NC(C)CCCN)c2ncccc2c1 (stereo not drawn) [compound 3, Primaquine] | 850 | very low inhibitory activity | inhibition of IFNb production, effectiveness in words [1]: less effective by about one log order
COc1cc(NS(C)(=O)=O)ccc1Nc1c2ccccc2nc2ccccc12 [compound 12] | > 650 |  | 

The next lines start with results.

IC50 (cGAS; [2]) [µM] | inhibitory activity on cGAMP production, in words (cGAS) | SMILES | also measured
 | relatively potent inhibitors | CCN(CC)CCCC(C)Nc1c2ccc(Cl)cc2nc2ccc(OC)cc12 (stereo not drawn) [Quinacrine, quinacrine] | IC50 [1, 3]: 3 to 25 µM
18 |  | COc1ccc2nc3cc(N)ccc3c(N(C)CCCN(C)Cc3ccccc3)c2c1 [compound 13, 9-(N-benzyl-N-methyl-N′-methyl-1′,3′-propanediamine)-3-amino-7-methoxyacridine] | Toxicity (3 cell lines): 33.1 µM
5 |  | Nc1c2ccccc2nc2ccccc12 [compound 8] | 
350 |  | CCN(CCO)CCCC(C)Nc1ccnc2cc(Cl)ccc12 (stereo not drawn) [compound 1, hydroxychloroquine] | 
13 |  | CCN(CC)CCCC(C)Nc1c2ccc(Cl)cc2nc2ccc(OC)cc12 (stereo not drawn) [compound 4, quinacrine] | Toxicity (3 cell lines): 33.0 µM
> 650 |  | O=[N+]([O-])c1cccc(Nc2c3ccccc3nc3ccccc23)c1 [compound 11] | 
1 |  | NCCCCNc1c2ccccc2nc2ccccc12 [compound 21] | Toxicity (3 cell lines): 16.0 µM
2000 | very low inhibitory activity | C=C[C@H]1CN2CC[C@H]1C[C@H]2[C@H](O)c1ccnc2ccc(OC)cc12 [compound 5, Quinine] | inhibition of IFNb production, effectiveness in words [1]: less effective by about one log order
8 |  | CN(C)c1ccc2cc3ccc(N(C)C)cc3nc2c1 [compound 20] | 
 | intermediate inhibitory activities | CCN(CCO)CCCC(C)Nc1ccnc2cc(Cl)ccc12 (stereo not drawn) [HCQ, hydroxychloroquine] | IC50 [1, 3]: 3 to 25 µM; effect on Lipofectamine transfection efficiency (IL-1b production) (THP1 cells): did not interfere with the Lipofectamine transfection efficiency; effect on c-di-AMP binding to STING (STING): not c-di-AMP to STING; effect on dsDNA/cGAS binding (gel shift) (dsDNA/cGAS complex): blocked dsDNA/cGAS binding; also recorded: inhibits the DNA binding to cGAS
23 |  | COc1ccc2nc3cc(N)ccc3c(N(C)CCCN(C)Cc3ccncc3)c2c1 [compound 14] | Toxicity (3 cell lines): 27.4 µM
